A short description of data set [1]: Biodistribution studies in mice (radioiodinated compounds, % ID/g-tissue). The class given is in vivo. The settings on record: tracer level, but MDTA-Na 0.18M and MDTA-NMG 0.19M; for Biodistribution, Blood 1' / Biodistribution, Kidney 1' / Biodistribution, Liver 1' / Biodistribution, Sm/Lrg. Intestine 1': 1 min; for Biodistribution, Blood 5' / Biodistribution, Kidney 5' / Biodistribution, Liver 5' / Biodistribution, Sm/Lrg. Intestine 5': 5 min; for tissue uptake at 1 min / tissue uptake at 5 min / tissue uptake at 1 h: mouse, iv; for Biodistribution, Blood 60' / Biodistribution, Kidney 60' / Biodistribution, Liver 60' / Biodistribution, Sm/Lrg. Intestine 60' / tissue uptake at 1 h: 60'. As to the method:
All of the new analogs were radiolabeled in order to determine their physical and biological properties. The iodinated compounds were exchange-labeled by heating with Na^125 I in the presence of CuSO4 and Na2 S2 O5 in glacial acetic acid at 135-150° C. for 1 h, followed by HPLC purification using a nucleosil C18 column and CH3 CN--H2 O containing 0.1% TFA as an eluent. In some cases (e.g. the compound of Example 12) the radioiodination was carried out by heating with Na*I in HOAc--NaOAc (pH 4.6) at 100° C. for 15 min. In all cases radiolabeled compounds of acceptable radiochemical purity and specific activity were obtained.
The compound of formula I, N,N-dimethyl-diatrizoic acid, was similarly radiolabeled for biological studies.
a) For intravenous administration the preferred vehicle for the compounds of formula I, II and III is bovine serum albumin, however, other physiologically acceptable vehicles may also be used.
Biodistribution studies were conducted in mice and the results are given in Table I. X-Ray CT images of MDTA in mice and rats indicate that these hydrophobic diatrizoate analogs may be of promise for liver imaging.

Data set [2] can be described thus: Water solubility of MDTA salts. In kind it is physicochemical. The protocol:
The compound of formula I, N,N-Dimethyldiatrizoic acid (I') (hereinafter sometimes referred to as MDTA) was synthesized, as in reference H. Holtermann et al., U.S. Pat. No. 3,178,673, Apr. 13, 1965, by the N-methylation of diatrizoic acid (IV) using either methyl iodide or dimethyl sulfate in aqueous media at alkaline pH to obtain pure MDTA (>99.9% purity) as a white crystalline solid (m.p. 185° C.).

[3] abbreviates: blood, blood, read-out: Biodistribution, Blood 1'.
The mark [4] stands for this setting: blood, blood, read-out: Biodistribution, Blood 5'.
Where [5] appears, read: blood, blood, read-out: Biodistribution, Blood 60'.
Where [6] appears, read: kidney, kidney, read-out: Biodistribution, Kidney 1'.
[7] abbreviates: kidney, kidney, read-out: Biodistribution, Kidney 5'.
Setting [8] is: kidney, kidney, read-out: Biodistribution, Kidney 60'.
Setting [9] is: liver, liver, read-out: Biodistribution, Liver 1'.
Setting [10] is: liver, liver, read-out: Biodistribution, Liver 5'.
Where [11] appears, read: liver, liver, read-out: Biodistribution, Liver 60'.
Setting [12] is: small/large intestine, small/large intestine, read-out: Biodistribution, Sm/Lrg. Intestine 1'.
The mark [13] stands for this setting: small/large intestine, small/large intestine, read-out: Biodistribution, Sm/Lrg. Intestine 5'.
Setting [14] is: small/large intestine, small/large intestine, read-out: Biodistribution, Sm/Lrg. Intestine 60'.

Like-named read-outs stand apart in the source and are kept apart here.

Take `CC(=O)N(C)c1c(I)c(C(=O)O)c(I)c(N(C)C(C)=O)c1I` [MDTA-NMG]: in data set [1] (blood), the “Biodistribution, Blood 1'” value came out at 6.63 % ID/g-tissue and the “Biodistribution, Blood 5'” value is 3.66 % ID/g-tissue. The “Biodistribution, Blood 60'” value in data set [1] (blood, 60 min) was 0.12 % ID/g-tissue. For the same compound, in data set [1] (kidney), the “Biodistribution, Kidney 1'” value came out at 13.53 % ID/g-tissue and the “Biodistribution, Kidney 5'” value came out at 12.65 % ID/g-tissue. Moreover, the “Biodistribution, Kidney 60'” value in data set [1] (kidney, 60 min) turned out to be 0.81 % ID/g-tissue. For the same compound, in data set [1] (liver), the “Biodistribution, Liver 1'” value is given as 12.30 % ID/g-tissue and the “Biodistribution, Liver 5'” value is given as 16.23 % ID/g-tissue. For the same compound, in data set [1] (liver, 60 min), the “Biodistribution, Liver 60'” value is on record as 2.13 % ID/g-tissue. Besides, in data set [1] (small/large intestine), the “Biodistribution, Sm/Lrg. Intestine 1'” value worked out at 2.03 % ID/g-tissue and the “Biodistribution, Sm/Lrg. Intestine 5'” value worked out at 3.80 % ID/g-tissue. Moreover, in data set [1] (small/large intestine, 60 min), the “Biodistribution, Sm/Lrg. Intestine 60'” value was 16.48 % ID/g-tissue. The Water solubility in data set [2] (listed as N-methyl-glucamine (NMG) salt) is recorded as ~ 1.3 M.
With `CC(=O)N(C)c1c(I)c(C(=O)Nc2ccc(CCCCCCCCCCC(=O)O)cc2)c(I)c(N(C)C(C)=O)c1I` [Example F11-P-MDTA, 4-[[[3,5-Bis(acetylmethylamino)-2,4,6-triiodophenyl]carbonyl]amino]benzeneundecanoic acid], the tissue uptake at 1 min in data set [1] (setting [3]) was determined as 9.14 %ID/g; in data set [1] (setting [6]), 6.21 %ID/g; in data set [1] (setting [9]) it was 57.9 %ID/g; in data set [1] (setting [12]), 1.14 %ID/g. The tissue uptake at 5 min in data set [1] (setting [4]) came out at 0.74 %ID/g; in data set [1] (setting [7]), 3.63 %ID/g; in data set [1] (setting [10]), 60.1 %ID/g; in data set [1] (setting [13]), 3.06 %ID/g. The tissue uptake at 1 h in data set [1] (setting [5]) stood at 0.08 %ID/g; in data set [1] (setting [8]) it was 0.1 %ID/g; in data set [1] (setting [11]), 2.96 %ID/g; in data set [1] (setting [14]) it was 38.2 %ID/g.
As for `CC(=O)N(C)c1c(I)c(C(=O)O)c(I)c(N(C)C(C)=O)c1I` [MDTA, 3,5-Bis-(Acetylmethylamino)-2,4,6-triiodobenzoic acid], in data set [1] (blood), the “Biodistribution, Blood 5'” value came to 1.21 % ID/g-tissue. Moreover, the “Biodistribution, Blood 60'” value in data set [1] (blood) is 0.00 % ID/g-tissue. Besides, in data set [1] (kidney), the “Biodistribution, Kidney 1'” value was determined as 37.57 % ID/g-tissue. For the same compound, in data set [1] (kidney, 60 min), the “Biodistribution, Kidney 60'” value is 0.18 % ID/g-tissue. Besides, in data set [1] (liver, 60 min), the “Biodistribution, Liver 60'” value is 0.85 % ID/g-tissue. Further, the values for the tissue uptake at 1 min in data set [1] (setting [3]), in data set [1] (setting [9]) and in data set [1] (setting [12]) were 4.56 %ID/g, 15.8 %ID/g and 1.5 %ID/g, respectively. The tissue uptake at 5 min was determined as 21.5 %ID/g in data set [1] (setting [7]), 15.4 %ID/g in data set [1] (setting [10]) and 4.55 %ID/g in data set [1] (setting [13]). In data set [1] (setting [14]), the tissue uptake at 1 h amounted to 13.3 %ID/g.
Regarding `CC(=O)N(C)c1c(I)c(C(=O)O)c(I)c(N(C)C(C)=O)c1I` [MDTA-Na], in data set [1] (blood), the “Biodistribution, Blood 1'” value worked out at 6.21 % ID/g-tissue and the “Biodistribution, Blood 5'” value is on record as 3.03 % ID/g-tissue. For the same compound, in data set [1] (kidney), the “Biodistribution, Kidney 1'” value is reported as 12.97 % ID/g-tissue and the “Biodistribution, Kidney 5'” value came to 12.72 % ID/g-tissue. In data set [1] (kidney, 60 min), the “Biodistribution, Kidney 60'” value amounted to 0.96 % ID/g-tissue. Moreover, in data set [1] (liver), the “Biodistribution, Liver 1'” value stood at 13.23 % ID/g-tissue and the “Biodistribution, Liver 5'” value came out at 17.56 % ID/g-tissue. Also, the “Biodistribution, Liver 60'” value in data set [1] (liver, 60 min) came out at 2.42 % ID/g-tissue. The tissue uptake at 1 h in data set [1] (setting [5]) came out at 0.16 %ID/g. For the same compound, in data set [1] (small/large intestine), the “Biodistribution, Sm/Lrg. Intestine 1'” value amounted to 1.81 % ID/g-tissue and the “Biodistribution, Sm/Lrg. Intestine 5'” value came to 3.92 % ID/g-tissue. For the same compound, the “Biodistribution, Sm/Lrg. Intestine 60'” value in data set [1] (small/large intestine, 60 min) turned out to be 17.02 % ID/g-tissue. For the same compound, in data set [2] (listed as sodium salt), the Water solubility is ~ 0.35 M.
In the case of `CC(=O)N(C)c1c(I)c(C(=O)Nc2ccc(CCCC(=O)O)cc2)c(I)c(N(C)C(C)=O)c1I` [Example F4-P-MDTA, 4-(((3,5-Bis(acetylmethylamino)-2,4,6-triiodophenyl)carbonyl)amino)benzenebutyric acid], the tissue uptake at 1 min in data set [1] (setting [3]) is 3.55 %ID/g; in data set [1] (setting [6]) it was 5.63 %ID/g; in data set [1] (setting [9]) it was 29.6 %ID/g; in data set [1] (setting [12]), 1.71 %ID/g. In addition, the tissue uptake at 5 min in data set [1] (setting [4]) came to 0.57 %ID/g; in data set [1] (setting [7]) it was 5.41 %ID/g; in data set [1] (setting [10]) it was 29.4 %ID/g; in data set [1] (setting [13]), 4.56 %ID/g. Further, the tissue uptake at 1 h in data set [1] (setting [5]) worked out at 0.07 %ID/g; in data set [1] (setting [8]), 0.63 %ID/g; in data set [1] (setting [11]), 6.13 %ID/g; in data set [1] (setting [14]), 20.4 %ID/g.

Source of the values: patent US6264916A, “N,N-dimethyldiatrizoic acid and its conjugates as hepatobiliary agents for x-ray CT imaging” (Bracco Research, USA, priority 2000, dated 2001).
